Tests used:
MerCreMer/ZEG (M/Z) mice = test: Cardiomyocyte replenishment after myocardial infarction, GFP+ / β-Gal+ cardiomyocyte counting; assay type: in vivo, mouse
Procedure: All experiments involving animals were conducted in accordance with the Guide for the Use and Care of Laboratory Animals, and all animal protocols have been approved by National Cheng Kung University. Sca-1^− GFP, B6.Cg-Tg(Ly6a-GFP)G5Dzk/J and EP2^−/−, B6.129-Ptger2^tm/Brey/J mice were obtained from Jackson Laboratory. The double transgenic MerCreMer/ZEG (M/Z) mice were generated by crossbreeding MerCreMer and Z/EG mice (Jackson Laboratory), which have C57BL/6SV129 and C57BL/6J (N7) background strains, respectively. The MerCreMer mice contain a tamoxifen-inducible Cre recombinase fusion protein driven by the cardiomyocyte-specific α-MHC promoter. In Z/EG mice, GFP replace constitutive β-Gal expression after the removal of a LoxP-flanked stop sequence by Cre.
M/Z mice were subjected to experimental myocardial infarction (MI) one month after the last tamoxifen injection. MI was generated by ligating the left anterior descending coronary artery at 2-3 mm distal to the left atrial appendage. For cell transplantation experiments, intramyocardial injections were performed immediately after coronary ligation. A total of 6×10^5 cardiac Sca-1^+ cells were injected per mouse in two divided injections (5 μl/injection). For BrdU labeling, the mice were subcutaneously implanted with osmotic minipump (Alzet) at the time of surgery and 40 μg/μl of BrdU (Sigma) was administrated. For immunohistological studies, mice were sacrificed and the hearts were harvested at different time points following experimental MI surgery. Cardiac performances were assessed by echocardiography at 28 and 56 days after operation using Vevo 770 (Visualsonics, Toronto, Canada).
(§1) To induce Cre recombination to achieve GFP labeling of cardiomyocytes, tamoxifen (Sigma) was dissolved in sunflower oil (Sigma) at a concentration of 5 mg/ml. The tamoxifen solution was injected intraperitoneally into M/Z mice daily at a dosage of 40 μg per 1 g body weight for 14 days, and the same dosage was injected twice daily for short-term labeling using methods known in the art (Laugwitz, K.-L. et al. Nature 433, 647-653 (2005)). All experimental conditions were optimized prior to the PGE2, indomethacin and TGF-β Type I Receptor Kinase Inhibitor II (ALK5 Inhibitor II, ALK5i, Merck) treatments. The mice treated with PGE2 or PGI2 (Vegiopoulos, A. et al. Science 328, 1158-1161 (2010)) (both from Sigma) were injected intraperitoneally with 3.33 ng of drug per 1 g of body weight dissolved in absolute ethanol twice daily. For the indomethacin treatment, mice were fed with water containing indomethacin (Sigma, 15 μg/ml) for different periods of time. The indomethacin-containing water was changed every 3 days. The mice subjected to the celecoxib (Lyons, T. R. et al. Nat. Med. 17, 1109-1115 (2011)) (Sigma) treatment were injected intraperitoneally with 5 μg of drug per 1 g of body weight daily. For ALK5i treatment, aged mice were injected intraperitoneally once per day with 1 μg of drug per 1 g of body weight one day before surgery and continuously until day 10 post-MI. Celecoxib and ALK5i were dissolved in ethanol and DMSO, respectively.
All of the cellular quantifications were performed double-blindly to minimize personal bias. […] For the cardiomyocyte cell counts, 3 sections from each heart, and 2 infarction border zones and 1 remote area from each section were analyzed at a magnification of 200× by light microscopy. Cells with visible sarcomere structures were analyzed, and the average number of cells counted was 171.8±5.8 per photo image. For the small cardiac cell counts, more than five sections from each heart were analyzed at a magnification of 400× using fluorescence microscopy. The average number of cells counted was 17.01±0.99 per photo image, and more than one hundred and fifty cells were analyzed from each heart. As quantification result is the averaged values calculated from the pictures taken from six border zone sections per heart, personal variation has been minimized. […]

Sca-1 = test: Quantitative RT-PCR of Sca-1 in infarct zone of MI heart; assay type: in vivo, mouse; details: young mice, day 3 post-MI
Procedure: as §1
The total RNA isolated from the ischemic region or remote area of MI hearts was reverse transcribed using the SuperScript III (Invitrogen) system according to the manufacturer's protocol. For quantitative PCR, the SYBR Green reagent (Maestrogen) was used according to the manufacturer's protocol. The analysis of relative gene expression was performed using the 2̂[−delta delta Ct] method and sequence-specific primers designed for semi-quantitative PCR and real-time RT-PCR (FIG. 11).

## COc1ccc2c(c1)c(CC(=O)O)c(C)n2C(=O)c1ccc(Cl)cc1 [indomethacin]
MerCreMer/ZEG (M/Z) mice; administered more than 5 days post-MI (Indo 9 D)
  stem cell-dependent cardiomyocyte reconstitution: no significant effect
MerCreMer/ZEG (M/Z) mice; border zone, Indo 14D (1 day before and 14 days after MI), 15 μg/ml in water, P<0.05
  drop of cardiomyocyte restoration rate: about 10%
MerCreMer/ZEG (M/Z) mice; border zone, given during the first 5 days post-MI (Indo 5 D), P<0.05
  cardiomyocyte replenishment: sufficient to impair cardiomyocyte replenishment
MerCreMer/ZEG (M/Z) mice; remote area, indomethacin in water
  MI-induced cardiomyocyte replenishment: abrogated
Sca-1
  Sca-1 expression: repressed

## CCCCC[C@H](O)/C=C/[C@@H]1[C@H]2C/C(=C/CCCC(=O)O)O[C@H]2C[C@H]1O [PGI2, prostaglandin I2]
MerCreMer/ZEG (M/Z) mice; border zone, 3.33 ng per 1 g i.p. twice daily for 14 days
  significant increase of cardiomyocyte replenishment compared to the vehicle control (in words): not

## Cc1cccc(-c2[nH]ncc2-c2ccc3ncccc3n2)n1 [ALK5i]
MerCreMer/ZEG (M/Z) mice; aged mice, 1 μg per 1 g i.p. once per day from one day before surgery until day 10 post-MI, day 14 post-MI, P<0.01
  cardiomyocyte replenishment in comparison with the vehicle control group: restored cardiomyocyte replenishment

Reference: patent publication US20130331389A1, “Methods and Compositions for Cardiomyocyte Replenishment by Endogenous and Progenitor Stem Cells” (NATIONAL CHENG KUNG UNIVERSITY, priority 2012, published 2013)
